Results published in US9845327B2, “Treatment of proteinopathies” (THE GENERAL HOSPITAL CORPORATION, priority 2011, dated 2017).
One block for each compound: values may come before it.

Columns and labels:
[1] = molecular target: T1, recombinant human α-synuclein (Homo sapiens, UniProt P37840); assay: In vitro soluble α-synuclein oligomers and sedimentation with lipids (SEC/SDS-PAGE, ANS, 100,000 x g centrifugation)
T1 construct: made in house; host or cells: E. coli BL21 CodonPlus (DE3)-RIL
From the text: Therefore, in this Example it was hypothesized that the delay in fibril formation observed in vitro resulted from a kinetic stabilization of a soluble oligomeric intermediate species. To test this, the nature of the species that form during the lag phase (between 1 and 16 hr) of PC25/GlcCer75-containing reactions were characterized by analytic biochemical methods. Soluble portions of the reaction mixtures were obtained by centrifugation at 100,000×g and analyzed at 1 and 5 hr after the addition of lipids by SEC/SDS-PAGE. […] Further, detected were increased amounts of soluble SDS and heat-stable dimers (36 kDa), trimers (54 kDa), and higher oligomeric species eluting as 36-27 Å-sized particles in PC25/GlcCer75-containing reactions compared to controls (FIG. 7B). […] Syn505 also detected α-synuclein directly on GlcCer tubular structures (FIG. 7G, i and ii) but not on GlcCer-alone reactions (FIG. 7I), indicating an association of misfolded α-synuclein with GlcCer. α-synuclein-GlcCer reactions were further analyzed by 8-anilino-1-napthalene sulfonate (ANS) binding, a fluorescent dye used to detect aggregation-prone conformational intermediates (Stryer, 1965). […]
Oligomers were also detected by 8-anilino-1-napthalene sulfonate (ANS) (Acros #401220050). […]

GCase polypeptide = molecular target: T2, GCase polypeptide (Homo sapiens, UniProt P04062); assay: GCase polypeptide levels and post-ER forms by western blot in human iPS dopamine neurons; type: cell-based; conditions: human midbrain iPS dopamine neurons
T2 construct: endogenous in cells; host or cells: human iPS-derived midbrain dopamine neurons (healthy control; PD patient with SNCA triplication, Coriell ND27760)
T2 sequence (P04062 40-536): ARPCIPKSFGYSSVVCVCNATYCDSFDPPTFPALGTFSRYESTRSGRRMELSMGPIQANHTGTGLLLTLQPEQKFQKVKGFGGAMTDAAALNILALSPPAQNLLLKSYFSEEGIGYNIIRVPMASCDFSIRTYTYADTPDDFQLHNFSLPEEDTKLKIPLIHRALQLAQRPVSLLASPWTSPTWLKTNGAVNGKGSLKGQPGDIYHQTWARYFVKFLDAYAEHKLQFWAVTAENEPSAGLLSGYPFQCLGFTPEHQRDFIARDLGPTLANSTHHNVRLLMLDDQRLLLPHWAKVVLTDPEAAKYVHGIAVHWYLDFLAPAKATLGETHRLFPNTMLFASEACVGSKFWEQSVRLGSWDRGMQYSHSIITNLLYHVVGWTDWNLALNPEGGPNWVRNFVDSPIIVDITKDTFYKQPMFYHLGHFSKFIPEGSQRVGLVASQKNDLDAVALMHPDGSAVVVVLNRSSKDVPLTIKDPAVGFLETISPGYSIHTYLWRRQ
Procedure: In this Example, human dopamine neurons generated from iPS cells of an unaffected control were treated with a pharmacological chaperone activator of GCase polypeptide, isofagomine (IFG). […] Treatment of wild-type neurons with 100 μM IFG for 5 days followed by 1 day wash-out increased the levels of GCase polypeptide (FIGS. 15A and 15B). This increase was likely due to the fact that wild-type GCase polypeptide was occasionally misfolded in the ER and degraded (about 30% of the total made in the ER), and IFG appeared to also stabilize the wild-type misfolded forms.
(§1) It was also shown in this Example that treatment with the GCase polypeptide activator increased the levels of total GCase protein and increased the post-ER forms, indicating enhancement of flux to the lysosome (FIG. 19B).
In this Example, the effect of combining the GCase polypeptide pharmacological chaperone IFG with the antioxidant n-acetyl-cysteine (NAC) on GCase polypeptide maturation in PD iPS neurons was tested. Neurons were treated with either IFG, NAC, or IFG and NAC together, and GCase polypeptide maturation was analyzed by western blot.
(§2) Most materials for SDS-PAGE were obtained from Invitrogen (NuPAGE system). Protein lysates were boiled in sample buffer (20 mM Tris, 1% (v/v) glycerol, 180 mM β-mercaptoethanol, 0.003% (w/v) bromophenol blue, 2% (w/v) SDS, pH 6.8), resolved on 4%-12% Bis-Tris polyacrylamide precast gels in a MOPS-SDS running buffer, or 4%-12% Tris-Glycine gels. 10% Tris-Glycine gels were utilized for some GCase polypeptide western blot's (FIGS. 13B, 13D, and 13E, and FIGS. 14C and 14F). […] Blots were blocked in Odyssey blocking buffer (Li-Cor biosciences) containing 0.05% Tween, or 5% non-fat dry milk in TBS-T 0.2%, followed by incubation with primary antibodies (see above for dilutions), and detected with anti-mouse or -rabbit IgG conjugated to IRDye 680 or 800 (1:10,000, Li-Cor biosciences). […] Any nonspecific bands detected were not included in densitometric analyses. […]

α-synuclein = α-synuclein levels by western blot in human midbrain iPS dopamine neurons; type: cell-based
From the text: In this Example, it was investigated whether enhancement of lysosomal enzyme trafficking through stimulation of the secretory pathway would result in increased lysosomal function and reduction of α-synuclein. Therefore, in this Example the small GTPase Rab1a polypeptide was overexpressed by lentiviral infection in iPS neurons to stimulate enzyme trafficking. Rab1a polypeptide has been established to function specifically at the ER-Golgi step of the secretory pathway (Duvernay et al., Cell Signal 17: 1457, 2005). The effect of Rab1a polypeptide was determined in human iPS dopamine neurons derived from reprogrammed fibroblasts of a PD patient (Coriell line ND27760). These cells harbor a triplication mutation in the genomic region containing SNCA which encodes for α-synuclein, leading to overexpression of the protein and lysosomal trafficking deficits. […] Further in this Example, it was determined if Rab1a polypeptide enhances lysosomal function by monitoring cathepsin B activity.
as §1, §2

primary cortical neurons = assay: Proteolysis of long-lived proteins by radioactive pulse-chase in primary cortical neurons; type: cell-based, mouse; conditions: added to GCase polypeptide KD
Procedure: In this Example, a test was conducted to determine whether GCase polypeptide KD affects a lysosomal degradation pathway. In this test, neurons were treated with the well-established lysosomal inhibitors ammonium chloride (NH4Cl) and leupeptin.
Proteolysis of long-lived proteins was determined by radioactive pulse-chase using ^3H-leucine. This procedure was performed as described previously (Kaushik et al. Methods Enzymol. 452: 297, 2009). Briefly, cortical cells were grown in 24 well clusters seeded at 33000 cells/well and infected at moi 3 with scrb or GCase polypeptide shRNA expressing lentiviral vectors. On dpi 4, ^3H-leucine (PerkinElmer, # NET460A001 MC, final 5 μCi/ml) was added in standard neurobasal medium containing B27 for 2 days to trace label proteins. […] Samples were centrifuged at 20,000×g for 20 min, 4° C., and the radioactivity was measured in 5 ml of scintillation cocktail using a Beckman LS 1701 liquid scintillation counter (Beckman Instruments). Precipitated protein pellets were extracted in 200 μl of Na deoxycholate, 0.1 M NaOH, and radioactivity was determined. Percent proteolysis was calculated as described in detail elsewhere (Kaushik et al. Methods Enzymol. 452: 297, 2009). […]

Hela cells = assay: Lysosomal proteolysis by radioactive pulse-chase in transfected Hela cells; type: cell-based
Procedure: Further in this Example, it was assessed whether GCase polypeptide overexpression had the ability to directly enhance lysosomal proteolysis in a non-neuronal cell line. Hela cells were transfected with a myc-tagged GCase polypeptide expression construct and lysosomal proteolysis was assessed by radioactive pulse-chase (FIG. 17A). […] This effect was also confirmed through a different assay, by measuring the effect of GCase polypeptide overexpression on the activity of the lysosomal protease cathepsin B. A cell-permeable fluorescent-tagged cathepsin B substrate (MAGIC RED cathepsin detection kit, Immunochemistry Technologies) was added to transfected Hela cells, and degradation of this substrate was determined in living cells after substrate wash-out.

[2] = molecular target: T1, recombinant human α-synuclein; assay: In vitro α-synuclein fibril (amyloid) formation with lipid dispersions, thioflavin T fluorescence
Procedure: In this Example, lipid dispersions made of mixtures of purified GlcCer and brain phosphatidylcholines (PCs) were incubated with α-synuclein at physiological conditions (pH 7.4, 37° C.). Electron microscopy (EM) analysis indicated the formation of tubules consisting of polymerized GlcCer (FIGS. 7G-7I), similar to those previously observed in Gaucher cells in patients and mouse models (Lee, PNAS 61: 484, 1968).
However, increasing the amount of GlcCer to 75% while keeping the total lipid amount constant (PC25/GlcCer75) altered the kinetic profile of α-synuclein fibril formation by delaying the formation of insoluble thioT-positive α-synuclein fibrils, extending the lag time from 2 to 16 hr (FIG. 7A).
The fibril assembly phase PC25/GlcCer75-containing reactions occurred between 16 and 24 hr, compared to control reactions where the assembly occurred between 2 and 24 hr. […] The aggregated species formed at the end stage of the fibril-forming reaction, after assembly was completed and equilibrium was reached (at 28 hr) were further analyzed. […]
α-synuclein was expressed in E. coli and purified by boiling followed by HPLC as described previously (Mazzulli et al 2007). […] Fluorescence (ex=430 nm, em=510, 0.1 s) was determined in a Wallac Victor^2 plate reader (Perkin Elmer) in black FluorNunc Maxisorp 96 well plates (Nunc, #475515). […]

- soluble α-synuclein oligomers compared to α-synuclein alone ([1]; pH 5.0, 15 hr incubation, 10:1 lipid:protein ratio): dramatic stabilization and elevation
Compound: monosialotetrahexosylganglioside [ganglioside GM1]

- levels of total GCase protein (GCase polypeptide): increased
- post-ER forms of GCase (GCase polypeptide): increased
Compound: C#Cc1ccc(NC(=O)c2cnn3c(C)cc(C)nc23)cc1 [NCGC00188758]
- α-synuclein protein levels (α-synuclein; neurons from a PD patient with triplication of the SNCA genomic region): dose-dependent decrease
- α-synuclein protein levels (α-synuclein; neurons from healthy unaffected controls): dose-dependent decrease

Compound: Cl.N [ammonium chloride]
- proteolysis of long-lived proteins in GCase polypeptide shRNA-treated cells (primary cortical neurons): did not additively inhibit
- effect of lysosomal inhibitors on the proteolysis increase by GCase polypeptide overexpression (Hela cells): completely reversed

- maximal thioT signal at the end stages, fold higher compared to control reactions ([2]; pH 5.0): 2- to 3 fold
- α-synuclein fibril formation ([2]; physiological conditions, pH 7.4, 37° C.): no effect
- amount of pelletable α-synuclein protein (100,000×g sedimentation) ([1]; pH 5.0, 28 hr): no effect
Compound: Glucosyl (β) Ceramide [GlcCer]
